Laboratory results reported in article PMC5706701, “Development of a homogenous high-throughput assay for inositol hexakisphosphate kinase 1 activity” (PLoS ONE, 2017).
Counter-ions that a name gives are not always drawn. Like-named read-outs stand apart in the source and are kept apart here.

Biological target: T1, Human IP6K1 (Homo sapiens, UniProt Q92551)
T1 construct: GST (N, cleaved yes); made in house; host or cells: C43 E. coli, pGEX-6P-2
Experiment: IP6K1 high-throughput screen of the Sigma LOPAC (ADP-Glo Max, single point);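 also: final compound concentration 10µM in 5% DMSO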
Format: biochemical

[1] = LOPAC single-point screen, ADP-Glo Max raw signal per well
[2] = LOPAC single-point screen, Z-score from raw signal with plate average and StDev
[3] = Sigma LOPAC single-point screen, ADP-Glo Max raw signal per well
[4] = Sigma LOPAC single-point screen, Z-score from plate average and StDev
[5] = LOPAC single-point screen, Z-score against plate average and StDev
[6] = LOPAC single-point screen, ADP-Glo Max luminescence raw signal per well
[7] = LOPAC single-point screen, Z-score relative to plate average and StDev

T1 sequence (Q92551 whole entry): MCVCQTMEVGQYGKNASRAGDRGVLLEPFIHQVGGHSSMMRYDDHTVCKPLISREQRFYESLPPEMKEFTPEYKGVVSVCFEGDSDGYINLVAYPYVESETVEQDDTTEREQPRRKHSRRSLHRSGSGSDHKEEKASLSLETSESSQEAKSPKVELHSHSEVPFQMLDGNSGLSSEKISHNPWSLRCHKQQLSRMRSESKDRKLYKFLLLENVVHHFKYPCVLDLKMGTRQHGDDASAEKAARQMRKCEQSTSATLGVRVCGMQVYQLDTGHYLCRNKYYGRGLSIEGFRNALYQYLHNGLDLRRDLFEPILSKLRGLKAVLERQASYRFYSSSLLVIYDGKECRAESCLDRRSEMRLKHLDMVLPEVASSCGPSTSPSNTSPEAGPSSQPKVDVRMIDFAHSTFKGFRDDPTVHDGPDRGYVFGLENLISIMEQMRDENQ

## N[C@@H]1CONC1=O (racemic) [DL-Cycloserine]
[1]
  Raw Signal: 55454
[2]
  Z-score: -0.4331

## CC12NC(Cc3ccccc31)c1ccccc12.O=C(O)/C=C\C(=O)O (single isomer, unassigned; (+)) [(+)-MK-801 hydrogen maleate]
[3]
  Raw Signal: 58157
[4]
  Z-score: 0.6324

## O=c1c2ccccc2[nH]c(=S)n1CCN1CCC(=C(c2ccc(F)cc2)c2ccc(F)cc2)CC1 [Diacylglycerol Kinase Inhibitor II]
[1]
  Raw Signal: 55319
[5]
  Z-score: 0.03086

## C[N+](C)(C)CCCCCC[N+](C)(C)C.[Cl-].[Cl-] [Hexamethonium dichloride]
[3]
  Raw Signal: 57643
[4]
  Z-score: 0.5028

## N#Cc1cc2nc([O-])c([O-])nc2cc1[N+](=O)[O-].[Na+].[Na+] [CNQX disodium]
[1]
  Raw Signal: 53180
[2]
  Z-score: -0.4035

## CN(C)C(=O)Oc1cccc([N+](C)(C)C)c1 [Neostigmine bromide]
[1]
  Raw Signal: 55937
[5]
  Z-score: 0.2593

## C=C[C@H]1C[N@@]2CC[C@H]1C[C@@H]2[C@@H](O)c1ccnc2ccc(OC)cc12 [Quinidine sulfate]
[1]
  Raw Signal: 56373
[5]
  Z-score: 0.06784

## O=C1Cc2c([nH]c3ccc(Br)cc23)-c2ccccc2N1 [Kenpaullone]
[6]
  Raw Signal: 65095
LOPAC single-point screen, Z-score from plate average and StDev
  Z-score: 1.798

## CSC(N)=NCCC[C@H](N)C(=O)O [S-Methyl-L-thiocitrulline acetate]
[1]
  Raw Signal: 53034
[2]
  Z-score: -0.2284

## Cc1[nH]c2ccc(O)cc2c1CCN.O=C(O)/C=C\C(=O)O [2-Methyl-5-hydroxytryptamine maleate]
[1]
  Raw Signal: 56336
[5]
  Z-score: 0.3264

## O=C(O)c1cccnc1C(=O)O [Quinolinic acid]
[6]
  Raw Signal: 51489
[7]
  Z-score: -0.881

## CCN(CC)CCNC(=O)c1cc(Cl)c(N)cc1OC.Cl [Metoclopramide hydrochloride]
[1]
  Raw Signal: 53948
[5]
  Z-score: -0.07486

## C[N+](C)(C)CC#CCOC(=O)Nc1cccc(Cl)c1.[Cl-] [McN-A-343]
[1]
  Raw Signal: 55957
[2]
  Z-score: -0.3445

## R(-)-Me5
[1]
  Raw Signal: 53002
[2]
  Z-score: -0.2338

## OCc1cc(C(O)CNCCCCCCOCCCCc2ccccc2)ccc1O (centres unmarked) [Salmeterol]
[6]
  Raw Signal: 52718
[7]
  Z-score: -0.6423

## C[C@H](O)C(=O)C1=Nc2c(nc(N)[nH]c2=O)NC1 [Sepiapterin]
[3]
  Raw Signal: 58753
[4]
  Z-score: 0.5302

## C=CCN1CC[C@]23c4c5ccc(O)c4O[C@H]2/C(=N/NC(=O)c2ccccc2)CC[C@@]3(O)[C@H]1C5 [Naloxone benzoylhydrazone]
[3]
  Raw Signal: 57821
[4]
  Z-score: 0.5759

## C#CCN(C)CCCOc1ccc(Cl)cc1Cl [Clorgyline hydrochloride]
[6]
  Raw Signal: 50699
[7]
  Z-score: -0.6208

## Br.Cc1cccc(C2CN(C)CCc3c2cc(O)c(O)c3Cl)c1 (centres unmarked) [SKF 83959 hydrobromide]
[6]
  Raw Signal: 52693
[7]
  Z-score: -0.6471

## C=C[C@H]1C[N@@]2CC[C@H]1C[C@H]2[C@H](O)c1ccnc2ccc(OC)cc12 [Quinine sulfate]
[1]
  Raw Signal: 53765
[2]
  Z-score: -0.4388

## Cn1cc(C2=C(c3ccc(Cl)cc3Cl)C(=O)NC2=O)c2ccccc21 [SB 216763]
[3]
  Raw Signal: 56670
[4]
  Z-score: 0.3825

## CCCN(CCC)CCc1cccc2c1CC(=O)N2 [Ropinirole hydrochloride]
[1]
  Raw Signal: 53968
[2]
  Z-score: -0.3994

## Clc1cccc(Cl)c1N=C1NCCN1 [Clonidine hydrochloride]
[6]
  Raw Signal: 54432
[7]
  Z-score: -0.6131

## CN1CCN(C2=Nc3cc(Cl)ccc3Nc3ccccc32)CC1 [Clozapine]
[6]
  Raw Signal: 54825
[7]
  Z-score: -0.5439

## Nc1nc(N)c2nc(CNc3ccc(C(=O)N[C@@H](CCC(=O)O)C(=O)O)cc3)cnc2n1 [Aminopterin]
[1]
  Raw Signal: 55514
[2]
  Z-score: -0.4225

## C[N+]1(C)CCc2cc3c(cc2[C@H]1[C@@H]1OC(=O)c2c1ccc1c2OCO1)OCO3.[Br-] [(-)-Bicuculline methbromide, 1(S), 9(R)]
[1]
  Raw Signal: 56332
[2]
  Z-score: -0.2785

## Cc1nnc2ccc(-c3cccc(C(F)(F)F)c3)nn12
[1]
  Raw Signal: 54310
[5]
  Z-score: -0.01403

## N=C(N)SCCc1cnc[nH]1 [Imetit dihydrobromide]
  Raw Signal: 60718
  Z-score: 1.063

## O=P1(N(CCCl)CCCl)NCCCO1 (centres unmarked) [Cyclophosphamide monohydrate]
  Raw Signal: 58935
  Z-score: 0.18

## CCCCCCC(C)(C)c1ccc([C@@H]2C[C@H](O)CC[C@H]2CCCO)c(O)c1 [CP55940]
[1]
  Raw Signal: 55459
[2]
  Z-score: -0.4322

## CCN(CC)CC#CCOC(=O)C(O)(c1ccccc1)C1CCCCC1 (centres unmarked) [Oxybutynin Chloride]
[1]
  Raw Signal: 55631
[5]
  Z-score: 0.2079
